Reference: US5578566A, “KGF receptor-derived antagonists of KGF binding” (The United States of America as represented by the …, priority 1993, dated 1996)
No end group written: not given here.

T1: KGF (Homo sapiens, UniProt P21781)
T1 construct: made in house
T1 sequence (P21781 32-194): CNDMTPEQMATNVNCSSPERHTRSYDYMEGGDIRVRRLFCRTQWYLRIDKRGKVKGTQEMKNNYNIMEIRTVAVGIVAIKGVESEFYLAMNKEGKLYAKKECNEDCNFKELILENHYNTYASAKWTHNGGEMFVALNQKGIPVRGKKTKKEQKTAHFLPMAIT


Key:
[1] = target: T2, KGF receptor (KGFR) (Mus musculus, UniProt P21803); assay: [125I]-KGF binding to NIH/3T3 cells overexpressing KGFR (competition); conditions: NIH3T3/KGFR transfectants; read-out: displacement of 50% of the radiolabeled KGF
T2 construct: expressed in transfected cells; host or cells: NIH/3T3
Protocol: Values shown are the mean of triplicate samples. Results are representative of three separate experiments.
[^125 I]-KGF binding to NIH/3T3 cells overexpressing KGFR was measured as described in Bottaro et al., supra. Competition studies were performed with unlabeled KGF or peptides as indicated.

[2] = target: T1, KGF; assay: KGF radioimmunoassay: immunoprecipitation of [125I]-KGF by monoclonal antibody 1G4; format: binding
Protocol: Upper Panel: Immunoprecipitation of [^125 I]-KGF competed by KGF, aFGF, aFGF+heparin (30 μg/ml), peptide 412 (SEQ ID NO 2) or peptide 341. Lower Panel: Immunoprecipitation of [^125 I]-KGF competed by KGF, KGF+heparin (1, 10, or 30 μg/ml, as indicated), peptide 412 (SEQ ID NO 2), or peptide 412 (SEQ ID NO 2)+heparin (1, 10, or 30 μg/ml, as indicated). Values are the mean of duplicate samples, expressed as % maximum [^125 I]-KGF bound. Raw values for background and maximum [^125 I]-KGF bound were approximately 300 and 12,000 cpm/sample, respectively. Results are representative of three separate experiments.
[^125 I]-KGF was immunoprecipitated by 1G4 in the presence of unlabeled KGF, aFGF, or peptides as indicated. Briefly, 1G4 (4 ng/ml final concentration), [^125 I]-KGF (30,000 cpm), and appropriate competitors were mixed in 200 μl of buffer containing 10 mM Tris (pH 7.4), 130 mm NaCl, 1 mM EDTA, 10 mM KC1, 1% NP-40, 0.1% SDS, 0.05% Tween-20, and 0.3% nonfat dry milk, and incubated for 24h at 4° C. Antigen-antibody complex was recovered by adding 30 ul (50% suspension) GammaBind-G Sepharose, incubating an additional 30 min at 4° C. (turning gently), and brief centrifugation (5 min at 14,000×g, 4° C.). Pelleted material was washed three times ([…] each) with cold buffer, and radioactivity was measured by gamma counting.

[3] = Solubility in water; format: physicochemical
[4] = system: KGF mitogenic activity; conditions: Ron et al.; cited from earlier work

T2 sequence (P21803 22-707 isoform P21803-2 limits assumed): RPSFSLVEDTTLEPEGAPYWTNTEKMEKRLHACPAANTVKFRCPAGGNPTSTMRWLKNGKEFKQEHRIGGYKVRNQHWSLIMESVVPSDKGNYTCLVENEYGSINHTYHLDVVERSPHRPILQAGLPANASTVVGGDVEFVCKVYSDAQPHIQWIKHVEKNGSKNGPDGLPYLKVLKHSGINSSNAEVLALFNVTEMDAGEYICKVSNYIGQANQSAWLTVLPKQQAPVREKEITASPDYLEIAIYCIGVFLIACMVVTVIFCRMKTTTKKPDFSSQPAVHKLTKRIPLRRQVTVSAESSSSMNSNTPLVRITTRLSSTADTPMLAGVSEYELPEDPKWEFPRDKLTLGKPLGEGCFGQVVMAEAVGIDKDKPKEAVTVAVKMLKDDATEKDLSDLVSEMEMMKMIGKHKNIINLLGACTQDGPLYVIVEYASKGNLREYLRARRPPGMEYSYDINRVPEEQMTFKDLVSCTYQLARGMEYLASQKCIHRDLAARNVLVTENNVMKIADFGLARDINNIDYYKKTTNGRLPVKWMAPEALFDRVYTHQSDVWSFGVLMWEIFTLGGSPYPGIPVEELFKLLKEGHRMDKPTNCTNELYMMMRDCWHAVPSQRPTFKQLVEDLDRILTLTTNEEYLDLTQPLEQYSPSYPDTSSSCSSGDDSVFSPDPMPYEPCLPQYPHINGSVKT

Row | Molecule | IC50 [1] [µM] | water solubility relative to its highest ED50 [3] | competition / displacement of [125I]-KGF from 1G4 ([2]; KGF RIA) | also measured
1 | HSGINSSNAEVLALFNVTEMDAGEY [peptide 412] | ~4 | > 3000 fold | – | IC50 ([2]; KGF RIA, read-out: concentration required to achieve 50% displacement of [125I]-KGF from 1G4): ~1000 nM; Kd ([2]; consistent with data from receptor binding assay and RIA, read-out: Kd for KGF/peptide interactions): 1000 to 2000 nM
2 | HSGINSSNAEVLALFNVTEM [peptide 367] | ~4 | approximately 30 fold | – | solubility ([3]; read-out: limit of solubility in water): 125 µM
3 | heparin [reference compound] | – | – | had no effect | effect on KGF mitogenesis [4]: inhibits KGF mitogenesis
4 | aFGF: Acidic FGF purified from bovine brain, from Upstate Biotechnology (protein, UniProt P03968 16-155, looked up) Fibroblast growth factor 1: FNLPLGNYKKPKLLYCSNGGYFLRILPDGTVDGTKDRSDQHIQLQLCAESIGEVYIKSTETGQFLAMDTDGLLYGSQTPNEECLFLERLEENHYNTYISKKHAEKHWFVGLKKNGRSKLGPRTHFGQKAILFLPLPVSSD | – | – | but not aFGF, even at a 1000-fold higher concentration | competition in the KGF RIA with addition of heparin ([2]; heparin 30 μg/ml): did not cause aFGF to compete
